Results on five compounds are retold here after patent US20260176320A1, “MODULATORS OF G-PROTEIN COUPLED RECEPTORS” (priority 2018, published 2026).

Structures are written as SMILES. Where two headings read alike, the source gives them in different places. Square brackets hold non-standard residues; d marks the D form. Peptide text beside a SMILES is read from it. * marks the point of attachment. X1 = O=C(CSCC(=O)*)NCCN1C(=O)c2ccccc2C1=O; Aib = CC(C)(N)C(=O)O A value given as a limit tells only on which side of the number the result lay.

Common to all, as to assay type: cell-based
The target in experiment [1] is T1, GLP-1R (Homo sapiens, UniProt P43220). As to the kind of experiment: HitHunter cAMP assay (GLP-1R). The following applies: cAMP; for Emax: read-out: (Emax) GLP-1R. Put shortly:
(§1)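 Suspension cells (10,000/well) in HBSS with 10 mM HEPES, 625 μM IBMX, 0.2% BSA exposed to 22-point 2-fold agonist series in duplicate for 30 min at room temperature. cAMP measured by antibody immunocompetition with overnight development, luminescence read-out.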

The target in experiment [2] is T1, GLP-1R. Briefly: PathHunter β-arrestin assay. Put shortly: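 Cells (5,000/well) plated overnight, then exposed to a 22-point 2-fold agonist dilution series in medium with 0.2% BSA for 90 min at 37 °C, 5% CO2. PathHunter detection reagent added; after 3 h at room temperature in the dark, luminescence read.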
Experiment [3] has as its target T2, GIP-R (Homo sapiens, UniProt P48546).
T2 sequence (P48546 22-466): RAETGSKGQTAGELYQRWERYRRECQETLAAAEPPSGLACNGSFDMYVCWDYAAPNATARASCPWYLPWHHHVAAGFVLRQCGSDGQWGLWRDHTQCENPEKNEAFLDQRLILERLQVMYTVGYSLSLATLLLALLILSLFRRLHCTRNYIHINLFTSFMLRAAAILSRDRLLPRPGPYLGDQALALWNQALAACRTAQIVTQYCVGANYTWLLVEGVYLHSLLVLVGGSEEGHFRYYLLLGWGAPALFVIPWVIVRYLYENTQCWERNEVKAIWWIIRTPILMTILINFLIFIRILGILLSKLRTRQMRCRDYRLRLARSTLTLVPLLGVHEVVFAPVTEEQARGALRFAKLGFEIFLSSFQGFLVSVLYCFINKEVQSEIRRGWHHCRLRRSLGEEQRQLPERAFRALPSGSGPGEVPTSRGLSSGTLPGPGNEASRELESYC
As to the kind of experiment: HitHunter cAMP assay (GIP-R). The conditions noted are these: cAMP; for Emax: read-out: (Emax) GIP-R. In a few lines:
as §1

The mark [4] stands for this setting: Table 3, read-out: EC50 GLP-1R/nM.
Where [5] appears, read: Table 3A, read-out: EC50 GLP-1R/nM.
Where [6] appears, read: PathHunter β-arrestin assay, read-out: β-arrestin activity EC50.
[7] abbreviates: Table 3, read-out: EC50 GIP-R/nM.
Setting [8] is: Table 3A, read-out: EC50 GIP-R/nM.
The mark [9] stands for this setting: read-out: (Emax) GIP-R at 1 μM, Table 3.

T1 sequence (P43220 24-463): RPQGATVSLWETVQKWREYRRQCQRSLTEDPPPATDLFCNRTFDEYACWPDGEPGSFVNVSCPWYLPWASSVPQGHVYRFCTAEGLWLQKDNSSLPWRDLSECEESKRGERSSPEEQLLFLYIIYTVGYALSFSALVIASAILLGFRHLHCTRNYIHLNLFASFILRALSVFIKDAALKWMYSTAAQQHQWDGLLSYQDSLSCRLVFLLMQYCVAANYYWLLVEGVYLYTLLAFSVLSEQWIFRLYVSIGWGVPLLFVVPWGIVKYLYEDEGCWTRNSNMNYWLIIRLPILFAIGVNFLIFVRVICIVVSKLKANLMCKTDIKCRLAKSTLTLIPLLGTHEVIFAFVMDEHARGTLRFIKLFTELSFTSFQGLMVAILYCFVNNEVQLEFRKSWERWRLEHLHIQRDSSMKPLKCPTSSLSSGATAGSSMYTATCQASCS

For `CC[C@H](C)[C@H](NC(=O)[C@H](CO)NC(=O)[C@H](Cc1ccc(O)cc1)NC(=O)[C@H](CC(=O)O)NC(=O)[C@H](CO)NC(=O)[C@@H](NC(=O)[C@H](Cc1ccccc1)NC(=O)[C@@H](NC(=O)CNC(=O)[C@H](CCC(=O)O)NC(=O)CN1C(=O)CSC1=O)[C@@H](C)O)[C@@H](C)O)C(=O)N[C@@H](Cc1ccc(O)cc1)C(=O)N[C@@H](CC(C)C)C(=O)N[C@@H](CC(=O)O)C(=O)N[C@@H](CCCCN)C(=O)N[C@@H](CCC(N)=O)C(=O)N[C@@H](C)C(=O)N[C@@H](C)C(=O)NC(C)(C)C(=O)N[C@@H](CCC(=O)O)C(=O)N[C@@H](Cc1ccccc1)C(=O)N[C@H](C(=O)N[C@@H](CC(N)=O)C(=O)N[C@@H](Cc1c[nH]c2ccccc12)C(=O)N[C@@H](CC(C)C)C(=O)N[C@@H](CC(C)C)C(=O)N[C@@H](C)C(=O)NCC(=O)NCC(=O)N1CCC[C@H]1C(=O)N[C@@H](CO)C(=O)N[C@@H](CO)C(=O)NCC(=O)N[C@@H](C)C(=O)N1CCC[C@H]1C(=O)N1CCC[C@H]1C(=O)N1CCC[C@H]1C(=O)N[C@@H](CO)C(=O)N[C@@H](CCCCN)C(N)=O)C(C)C` [Compound 185], the Emax in experiment [1] (Table 3) and in experiment [1] (Table 3A) was 97% each time. Further, the EC50 in experiment [1] (setting [4]) was 0.1 to 1 nM; in experiment [1] (setting [5]) it was 0.1 to 1 nM; in experiment [2] (setting [6]), more than 1000 nM; in experiment [3] (setting [7]), more than 1000 nM; in experiment [3] (setting [8]), more than 1000 nM. Moreover, the Emax (commonly the greatest response seen or fitted, relative to the assay's reference) at 1 µM in experiment [3] (setting [9]) was found to be 8.6%.
For the compound `CC[C@H](C)[C@H](NC(=O)[C@H](CO)NC(=O)[C@H](Cc1ccc(O)cc1)NC(=O)[C@H](CC(=O)O)NC(=O)[C@H](CO)NC(=O)[C@@H](NC(=O)[C@H](Cc1ccccc1)NC(=O)[C@@H](NC(=O)CNC(=O)[C@H](CCC(=O)O)NC(=O)C[S+]([O-])CC(=O)NCCN1C(=O)CSC1=O)[C@@H](C)O)[C@@H](C)O)C(=O)N[C@@H](Cc1ccc(O)cc1)C(=O)N[C@@H](CC(C)C)C(=O)N[C@@H](CC(=O)O)C(=O)N[C@@H](CCCCN)C(=O)N[C@@H](CCC(N)=O)C(=O)N[C@@H](C)C(=O)N[C@@H](C)C(=O)NC(C)(C)C(=O)N[C@@H](CCC(=O)O)C(=O)N[C@@H](Cc1ccccc1)C(=O)N[C@H](C(=O)N[C@@H](CC(N)=O)C(=O)N[C@@H](Cc1c[nH]c2ccccc12)C(=O)N[C@@H](CC(C)C)C(=O)N[C@@H](CC(C)C)C(=O)N[C@@H](C)C(=O)NCC(=O)NCC(=O)N1CCC[C@H]1C(=O)N[C@@H](CO)C(=O)N[C@@H](CO)C(=O)NCC(=O)N[C@@H](C)C(=O)N1CCC[C@H]1C(=O)N1CCC[C@H]1C(=O)N1CCC[C@H]1C(=O)N[C@@H](CO)C(=O)N[C@@H](CCCCN)C(N)=O)C(C)C` (stereo partly shown) [Compound 170], the Emax in experiment [1] (Table 3) and in experiment [1] (Table 3A) was 99% in each case. The EC50 in experiment [1] (setting [4]) was 1 to 10 nM; in experiment [1] (setting [5]), 1 to 10 nM; in experiment [2] (setting [6]), more than 1000 nM; in experiment [3] (setting [7]) it was more than 1000 nM; in experiment [3] (setting [8]), more than 1000 nM. For the same compound, the Emax at 1 µM in experiment [3] (setting [9]) was 5 to 8%.
For the compound `CCCCCCCCCCCCCCCC(=O)N[C@@H](CCC(=O)NCCCC[C@H](NC(=O)[C@H](CO)NC(=O)[C@@H]1CCCN1C(=O)[C@@H]1CCCN1C(=O)[C@@H]1CCCN1C(=O)[C@H](C)NC(=O)CNC(=O)[C@H](CO)NC(=O)[C@H](CO)NC(=O)[C@@H]1CCCN1C(=O)CNC(=O)CNC(=O)[C@H](C)NC(=O)[C@H](CC(C)C)NC(=O)[C@H](CC(C)C)NC(=O)[C@H](Cc1c[nH]c2ccccc12)NC(=O)[C@H](CC(N)=O)NC(=O)[C@@H](NC(=O)[C@H](Cc1ccccc1)NC(=O)[C@H](CCC(=O)O)NC(=O)C(C)(C)NC(=O)[C@H](C)NC(=O)[C@H](C)NC(=O)[C@H](CCC(N)=O)NC(=O)[C@H](CCCCN)NC(=O)[C@H](CC(=O)O)NC(=O)[C@H](CC(C)C)NC(=O)[C@H](Cc1ccc(O)cc1)NC(=O)[C@@H](NC(=O)[C@H](CO)NC(=O)[C@H](Cc1ccc(O)cc1)NC(=O)[C@H](CC(=O)O)NC(=O)[C@H](CO)NC(=O)[C@@H](NC(=O)[C@H](Cc1ccccc1)NC(=O)[C@@H](NC(=O)CNC(=O)[C@H](CCC(=O)O)NC(=O)CSCC(=O)N(C)CCN1C(=O)CSC1=O)[C@@H](C)O)[C@@H](C)O)[C@@H](C)CC)C(C)C)C(N)=O)C(=O)O` [Compound 93], the EC50 is 0.1 to 1 nM in experiment [1] (EC50 GLP-1R/nM, Table 3); 0.1 to 1 nM in experiment [1] (EC50 GLP-1R/nM, Table 3A); more than 1000 nM in experiment [2]; 1 to 10 nM in experiment [3] (EC50 GIP-R/nM, Table 3); 1 to 10 nM in experiment [3] (EC50 GIP-R/nM, Table 3A). The Emax came out at 99% in experiment [1] (Table 3), 99% in experiment [1] (Table 3A), 73% in experiment [3] (Table 3) and 73% in experiment [3] (Table 3A).
Take `CC[C@H](C)[C@H](NC(=O)[C@H](CO)NC(=O)[C@H](Cc1ccc(O)cc1)NC(=O)[C@H](CC(=O)O)NC(=O)[C@H](CO)NC(=O)[C@@H](NC(=O)[C@H](Cc1ccccc1)NC(=O)[C@@H](NC(=O)CNC(=O)[C@H](CCC(=O)O)NC(=O)CSCC(=O)NCCN1C(=O)c2ccccc2C1=O)[C@@H](C)O)[C@@H](C)O)C(=O)N[C@@H](Cc1ccc(O)cc1)C(=O)N[C@@H](CC(C)C)C(=O)N[C@@H](CC(=O)O)C(=O)N[C@@H](CCCCN)C(=O)N[C@@H](CCC(N)=O)C(=O)N[C@@H](C)C(=O)N[C@H](C(=O)NC(C)(C)C(=O)N[C@@H](CCC(=O)O)C(=O)N[C@@H](Cc1ccccc1)C(=O)N[C@H](C(=O)N[C@@H](CC(N)=O)C(=O)N[C@@H](Cc1c[nH]c2ccccc12)C(=O)N[C@@H](CC(C)C)C(=O)N[C@@H](CC(C)C)C(=O)N[C@@H](C)C(=O)NCC(=O)NCC(=O)N1CCC[C@H]1C(=O)N[C@@H](CO)C(=O)N[C@@H](CO)C(=O)NCC(=O)N[C@@H](C)C(=O)N1CCC[C@H]1C(=O)N1CCC[C@H]1C(=O)N1CCC[C@H]1C(=O)N[C@@H](CO)C(=O)N[C@@H](CCCCN)C(N)=O)C(C)C)C(C)C` [Compound 147] (X1-EGTFTSDYSIYLDKQAV[Aib]EFVNWLLAGGPSSGAPPPSK-NH2): the EC50 is 1 to 10 nM in experiment [1] (EC50 GLP-1R/nM, Table 3); 1 to 10 nM in experiment [1] (EC50 GLP-1R/nM, Table 3A); more than 1000 nM in experiment [2]; less than 0.1 nM in experiment [3] (EC50 GIP-R/nM, Table 3); less than 0.1 nM in experiment [3] (EC50 GIP-R/nM, Table 3A). The Emax in experiment [1] (Table 3) lay within 87 to 97%; in experiment [1] (Table 3A) it was 87 to 97%; in experiment [3] (Table 3) it was 114 to 128%; in experiment [3] (Table 3A), 114 to 128%.
As for `CC[C@H](C)[C@H](NC(=O)[C@H](CO)NC(=O)[C@H](Cc1ccc(O)cc1)NC(=O)[C@H](CC(=O)O)NC(=O)[C@H](CO)NC(=O)[C@@H](NC(=O)[C@H](Cc1ccccc1)NC(=O)[C@@H](NC(=O)CNC(=O)[C@H](CCC(=O)O)NC(=O)CSCC(=O)NCCn1c(C)cc(C)cc1=O)[C@@H](C)O)[C@@H](C)O)C(=O)N[C@@H](Cc1ccc(O)cc1)C(=O)N[C@@H](CC(C)C)C(=O)N[C@@H](CC(=O)O)C(=O)N[C@@H](CCCCN)C(=O)N[C@@H](CCC(N)=O)C(=O)N[C@@H](C)C(=O)N[C@@H](C)C(=O)NC(C)(C)C(=O)N[C@@H](CCC(=O)O)C(=O)N[C@@H](Cc1ccccc1)C(=O)N[C@H](C(=O)N[C@@H](CC(N)=O)C(=O)N[C@@H](Cc1c[nH]c2ccccc12)C(=O)N[C@@H](CC(C)C)C(=O)N[C@@H](CC(C)C)C(=O)N[C@@H](C)C(=O)NCC(=O)NCC(=O)N1CCC[C@H]1C(=O)N[C@@H](CO)C(=O)N[C@@H](CO)C(=O)NCC(=O)N[C@@H](C)C(=O)N1CCC[C@H]1C(=O)N1CCC[C@H]1C(=O)N1CCC[C@H]1C(=O)N[C@@H](CO)C(=O)N[C@@H](CCCCN)C(N)=O)C(C)C` [Compound 111], the EC50 in experiment [1] (EC50 GLP-1R/nM, Table 3) is 10 to 100 nM; in experiment [1] (EC50 GLP-1R/nM, Table 3A), 10 to 100 nM; in experiment [2] it was more than 1000 nM; in experiment [3] (EC50 GIP-R/nM, Table 3) it was 10 to 100 nM; in experiment [3] (EC50 GIP-R/nM, Table 3A), 100 to 1000 nM. Further, the Emax in experiment [1] (Table 3) and in experiment [1] (Table 3A) was 94% throughout. Besides, the Emax at 1 µM worked out at 12% in experiment [3] (setting [9]) and 12% in experiment [3] (read-out: (Emax) GIP-R at 1 μM, Table 3A).
